# Laboratory results as given in PubChem BioAssay AID651829 (Broad Institute, 2012).
# Activity calls are given as the source filed them.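 The calls were made as follows: active = max delta Tm melting temperature shift above 1 degree C at some tested dose; inactive = the rest.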
# Biological target: Kelch-like ECH-associated protein 1 (Homo sapiens) (UniProt Q14145)
# Test: thermal stabilisation of Keap1 Kelch domain – biophysical, thermal shift, RT-PCR instrument, dry powder, orthogonal assay for Keap1-Nrf2 interaction inhibitor project, dose response (AID 651829)
# Conditions: Recombinant Keap1 Kelch domain, Sypro Orange, top dose 38 µM, active compounds read high
# Sequence of Kelch-like ECH-associated protein 1 (Homo sapiens) (Q14145 whole entry, looked up, the tested form may be a part): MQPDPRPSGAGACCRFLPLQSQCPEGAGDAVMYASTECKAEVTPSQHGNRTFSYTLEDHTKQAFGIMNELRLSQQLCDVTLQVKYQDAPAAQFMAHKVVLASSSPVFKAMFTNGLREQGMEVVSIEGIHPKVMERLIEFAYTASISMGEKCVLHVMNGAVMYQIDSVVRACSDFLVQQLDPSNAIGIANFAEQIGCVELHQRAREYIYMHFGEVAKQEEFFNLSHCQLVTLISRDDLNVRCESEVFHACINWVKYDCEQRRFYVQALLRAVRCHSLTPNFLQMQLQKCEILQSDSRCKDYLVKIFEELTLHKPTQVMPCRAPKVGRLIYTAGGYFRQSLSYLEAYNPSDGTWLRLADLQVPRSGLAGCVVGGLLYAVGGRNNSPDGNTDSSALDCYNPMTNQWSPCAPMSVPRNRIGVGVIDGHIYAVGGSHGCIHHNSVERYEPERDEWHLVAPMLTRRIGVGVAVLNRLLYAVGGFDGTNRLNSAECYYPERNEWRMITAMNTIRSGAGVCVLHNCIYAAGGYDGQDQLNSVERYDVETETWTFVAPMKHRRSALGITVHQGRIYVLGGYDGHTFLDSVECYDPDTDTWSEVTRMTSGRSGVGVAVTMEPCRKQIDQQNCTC
Structure (SMILES),max delta Tm (at 38 µM),other results
O=C(O)[C@H]1CCCC[C@H]1C(=O)N1CCc2ccccc2[C@H]1CNS(=O)(=O)c1ccc([N+](=O)[O-])cc1,0.907 °C (inactive),–
O=C(O)C1CCCCC1C(=O)N1CCCCC1CN1C(=O)c2ccccc2C1=O (centres undefined),–,max delta Tm (at 2.6 µM): -0.027 °C (inactive)
Cc1ccccc1S(=O)(=O)Nc1cc(C(C(=O)OC(C)C)C(=O)C(F)(F)F)c(O)c2ccccc12 (centres undefined),7.77 degrees C,–
C=CC(=O)NC[C@@H]1c2ccccc2CCN1C(=O)[C@@H]1CCCC[C@@H]1C(=O)O,–,max delta Tm (at 0.6 µM): 0.229 °C (inactive)
